This note sets out measurements from patent US5550110A, “Endothelin Antagonists II” (Warner-Lambert Company, priority 1994, dated 1996).

Peptide text beside a SMILES is read from it.

Assay [1] addresses T1, human ETB receptor (cloned, CHO-K1 cells) (Homo sapiens, UniProt P24530).
T1 construct: The 1.35 kb HindIII/XbaI restriction fragment of clone 12 of the hETBR was inserted into the eukaryotic expression vector pRcCMV; expressed in transfected cells; host or cells: CHO-K1
Nature of the assay: Human Endothelin Receptor Binding Assay-B (hERBA-B), binding to human cloned receptor. Conditions: membranes of transfected CHO-K1 cells. Here is the method: Human Endothelin Receptor Biding Assay-B (hERBA-B) [^125 I]-ET-1 Binding to Human Cloned Receptor
A human placenta cDNA library was constructed in bacteriophage lambda gt11 and approximately 10^6 plaques were screened with a ^32 P-labelled 1.3 kilobase HindIII/XbaI restriction fragment of rat ETBR cDNA as a probe. Plaque hybridization was carried out for 16 hours at 42° C. in a solution containing 100 μg/mL calf thymus DNA, 1×Denhardt's solution, 5×sodium saline citrate (SSC), 50 mM sodium phosphate, and 0.1% sodium lauryl sulfate (SDS). The membranes were then washed twice for 30 minutes each in 2×SSC and 0.1% SDS at 42° C. A final wash was carried out in 0.5×SSC with 0.1% SDS at 55° C. The positive clones were purified and subcloned into a pUC19 plasmid. DNA sequencing was performed by the dideoxynucleotide chain termination method and human ETBR (h ETBR) was identified by reading both DNA strands.
The 1.35 kb HindIII/XbaI restriction fragment of clone 12 of the hETBR was inserted into the eukaryotic expression vector pRcCMV (pRcCMV-hETBR). CHO-K1 cells were transfected with 20 μg of pRcCMV-hETBR by electroporation at 300 V, 800 μF, low ohms for 1 second. […] Expression levels of human ETBR were determined by the receptor binding assay described below using [^125 I]-ET-3 as the radioligand. […]

Assay [2] relates to endothelin receptor, cultured rabbit renal artery vascular smooth muscle cells. The assay can be described thus: Inhibition of ET-1 stimulated arachidonic acid release (AAR-A). Conditions: ET-1 0.3 nM. It is filed as cell-based. Here is the method: In Vitro Inhibition of ET-1 Stimulated Arachidonic Acid Release in Cultured Rabbit Vascular Smooth Muscle Cells (AAR-A) or CHO Cells Expressing Rat Recombinant ETB Receptor (AAR-B) by Compounds of Formula I
Antagonist activity is measured by the ability of added compounds to reduce endothelin-stimulated arachidonic acid release in cultured vascular smooth muscle cells as arachidonic acid release (AAR). [^3 H] Arachidonic Acid Loading Media (LM) is DME/F12+0.5% fetal calf serum (FCS)×0.25 mCi/mL [^3 H] arachidonic acid (Amersham). Confluent monolayers of cultured rabbit renal artery vascular smooth muscle cells (AAR-A) or CHO cells expressing rat recombinant ETB receptor (AAR-B) were incubated in 0.5 mL of the LM over 18 hours, at 37° C., in 5% CO2. The LM was aspirated and the cells were washed once with the assay buffer (Hank's balanced salt solution [BSS]+10 mM HEPES+fatty acid-free BSA (1 mg/mL)), and incubated for 5 minutes with 1 mL of the prewarmed assay buffer. This solution was aspirated, followed by an additional 1 mL of prewarmed assay buffer, and further incubated for another 5 minutes. A final 5-minute incubation was carried out in a similar manner. The same procedure was repeated with the inclusion of 10 μL of the test compound (1 nM to 1 μM) and 10 μL ET-1 (0.3 nM) and the incubation was extended for 30 minutes. This solution was then collected, […] of scintillation cocktail was added, and the amount of [^3 H] arachidonic acid was determined in a liquid scintillation counter.

The subject of another assay is ET-1 pressor activity. The assay can be described thus: Conscious rat duration of action study. Conditions: 10 mg/kg IV; for inhibition of ET-1 pressor activity: ganglionically blocked conscious rats, n=4. It is filed as in vivo. The source says: Conscious Rat Duration of Action Study
Nonfasted rats (350-500 g) were used and anesthetized with Metofane (methoxyflurane) by inhalation. The rats were jugular cannulated (PE50) for IV administration of mecamylamine-HC1 (MEC), ET-1 and Ac-D-Bhg-Leu-Asp-Ile-N-MeIle-Trp (Example 19) Seq ID No: 20, and carotid cannulated (PE50) for arterial blood pressure measurements. Rats were attached to a swivel for freedom of movement, and food and water were available ad lib. Prior to the experiment, the animals were allowed to recover from anesthesia for 60 minutes. […] Ac-D-Bhg-Leu-Asp-Ile-N-MeIle-TrP (Example 19) Seq ID No: 20 was administered at a dose of 10 mg/kg IV.

The IC50 is the midpoint of a concentration-inhibition curve.

T1 sequence (P24530 27-442): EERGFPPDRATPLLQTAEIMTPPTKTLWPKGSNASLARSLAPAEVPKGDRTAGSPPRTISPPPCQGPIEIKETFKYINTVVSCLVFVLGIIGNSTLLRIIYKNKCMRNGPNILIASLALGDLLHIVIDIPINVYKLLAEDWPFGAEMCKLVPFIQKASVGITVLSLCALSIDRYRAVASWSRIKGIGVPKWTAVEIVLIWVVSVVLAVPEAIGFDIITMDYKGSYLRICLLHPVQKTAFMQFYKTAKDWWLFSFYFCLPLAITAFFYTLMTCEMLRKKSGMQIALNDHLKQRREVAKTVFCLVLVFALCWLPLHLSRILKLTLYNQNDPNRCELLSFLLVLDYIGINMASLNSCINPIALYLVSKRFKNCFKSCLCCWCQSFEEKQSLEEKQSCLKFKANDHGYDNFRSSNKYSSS

With `CC[C@H](C)[C@H](NC(=O)[C@H](CC(=O)O)NC(=O)[C@H](CC(C)C)NC(=O)[C@H](NC(C)=O)C1c2ccccc2CCc2ccccc21)C(=O)N[C@H](C(=O)N[C@@H](Cc1c[nH]c2ccccc12)C(=O)O)[C@@H](C)CC` [Example 1, Ac-D-Bhg-Leu-Asp-Ile-Ile-Trp] (HELM PEPTIDE1{[ac].[O=C([C@H](N[*:1])C1c2ccccc2CCc2ccccc21)[*:2]].L.D.I.I.W}$$$$V2.0), in assay [1], the IC50 came out at 210 nM.
As for `CC[C@H](C)[C@H](NC(=O)[C@H](CC(=O)O)NC(=O)[C@H](CC(C)C)NC(=O)[C@H](NC(C)=O)C1c2ccccc2CCc2ccccc21)C(=O)N(C)[C@H](C(=O)N[C@@H](Cc1c[nH]c2ccccc12)C(=O)O)[C@@H](C)CC` [Example 19, Ac-D-Bhg-Leu-Asp-Ile-N-MeIle-Trp] (HELM PEPTIDE1{[ac].[O=C([C@H](N[*:1])C1c2ccccc2CCc2ccccc21)[*:2]].L.D.I.[meI].W}$$$$V2.0), the IC50 in assay [1] is 25 nM; in assay [2], 4.3 nM. Also, the “duration of activity in vivo” value in the assay on ET-1 pressor activity was “prolonged activity”. In addition, the “inhibition of ET-1 pressor activity” value stood at 81% with ET-1 pressor activity (5 minutes postdose) and 58% with ET-1 pressor activity (30 minutes postdose).
